Measurements reported in ChEMBL document CHEMBL5647690, “Inhibition of demethylases by GSK-J1/J4” (Nature, 2014).

Assays:
[1] = target: T1, Lysine-specific demethylase 2B (Homo sapiens, UniProt Q8NHM5); experiment: Inhibition of KDM2B (1 to 650 residues)(unknown origin) by Alphalisa assay
T1 sequence (Q8NHM5 whole entry): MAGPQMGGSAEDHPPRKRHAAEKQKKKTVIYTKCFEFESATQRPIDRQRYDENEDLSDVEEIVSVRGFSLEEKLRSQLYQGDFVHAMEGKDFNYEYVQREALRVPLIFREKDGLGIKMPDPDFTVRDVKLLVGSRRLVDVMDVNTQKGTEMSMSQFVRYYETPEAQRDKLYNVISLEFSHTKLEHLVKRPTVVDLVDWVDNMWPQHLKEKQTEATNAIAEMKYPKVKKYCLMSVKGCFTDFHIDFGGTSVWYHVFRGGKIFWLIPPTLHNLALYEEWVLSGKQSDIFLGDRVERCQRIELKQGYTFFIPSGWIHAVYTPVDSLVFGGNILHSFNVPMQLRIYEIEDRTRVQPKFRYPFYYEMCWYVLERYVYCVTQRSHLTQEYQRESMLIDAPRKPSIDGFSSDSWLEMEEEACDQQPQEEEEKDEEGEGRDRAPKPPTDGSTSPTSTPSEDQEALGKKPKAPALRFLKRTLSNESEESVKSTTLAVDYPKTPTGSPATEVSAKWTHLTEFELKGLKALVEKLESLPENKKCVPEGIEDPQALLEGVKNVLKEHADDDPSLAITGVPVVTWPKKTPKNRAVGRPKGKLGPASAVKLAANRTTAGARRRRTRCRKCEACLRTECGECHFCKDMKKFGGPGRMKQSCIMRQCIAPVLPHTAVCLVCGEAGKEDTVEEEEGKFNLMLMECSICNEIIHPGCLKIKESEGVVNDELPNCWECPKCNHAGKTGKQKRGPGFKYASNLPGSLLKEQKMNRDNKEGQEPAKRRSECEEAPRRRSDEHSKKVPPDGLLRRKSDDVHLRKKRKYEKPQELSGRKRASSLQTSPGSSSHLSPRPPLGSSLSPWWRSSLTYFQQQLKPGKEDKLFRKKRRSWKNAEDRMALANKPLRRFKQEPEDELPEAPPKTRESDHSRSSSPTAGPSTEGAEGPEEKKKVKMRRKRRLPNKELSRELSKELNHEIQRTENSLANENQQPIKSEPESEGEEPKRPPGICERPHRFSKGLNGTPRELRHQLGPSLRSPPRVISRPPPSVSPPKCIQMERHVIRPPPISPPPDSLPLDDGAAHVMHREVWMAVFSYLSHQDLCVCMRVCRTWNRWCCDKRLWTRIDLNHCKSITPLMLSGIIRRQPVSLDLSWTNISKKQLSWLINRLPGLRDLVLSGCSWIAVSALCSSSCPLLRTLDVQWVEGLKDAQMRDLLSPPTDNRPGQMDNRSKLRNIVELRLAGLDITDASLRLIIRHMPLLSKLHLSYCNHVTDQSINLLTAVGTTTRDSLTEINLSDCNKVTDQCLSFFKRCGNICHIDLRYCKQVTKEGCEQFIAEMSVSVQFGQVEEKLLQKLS

[2] = target: Lysine-specific demethylase 5A (Homo sapiens, UniProt P29375); experiment: Inhibition of KDM5A (1 to 1090 residues)(unknown origin) by Alphalisa assay
Lysine-specific demethylase 5A, sequence (P29375 whole entry, the tested form may be a part): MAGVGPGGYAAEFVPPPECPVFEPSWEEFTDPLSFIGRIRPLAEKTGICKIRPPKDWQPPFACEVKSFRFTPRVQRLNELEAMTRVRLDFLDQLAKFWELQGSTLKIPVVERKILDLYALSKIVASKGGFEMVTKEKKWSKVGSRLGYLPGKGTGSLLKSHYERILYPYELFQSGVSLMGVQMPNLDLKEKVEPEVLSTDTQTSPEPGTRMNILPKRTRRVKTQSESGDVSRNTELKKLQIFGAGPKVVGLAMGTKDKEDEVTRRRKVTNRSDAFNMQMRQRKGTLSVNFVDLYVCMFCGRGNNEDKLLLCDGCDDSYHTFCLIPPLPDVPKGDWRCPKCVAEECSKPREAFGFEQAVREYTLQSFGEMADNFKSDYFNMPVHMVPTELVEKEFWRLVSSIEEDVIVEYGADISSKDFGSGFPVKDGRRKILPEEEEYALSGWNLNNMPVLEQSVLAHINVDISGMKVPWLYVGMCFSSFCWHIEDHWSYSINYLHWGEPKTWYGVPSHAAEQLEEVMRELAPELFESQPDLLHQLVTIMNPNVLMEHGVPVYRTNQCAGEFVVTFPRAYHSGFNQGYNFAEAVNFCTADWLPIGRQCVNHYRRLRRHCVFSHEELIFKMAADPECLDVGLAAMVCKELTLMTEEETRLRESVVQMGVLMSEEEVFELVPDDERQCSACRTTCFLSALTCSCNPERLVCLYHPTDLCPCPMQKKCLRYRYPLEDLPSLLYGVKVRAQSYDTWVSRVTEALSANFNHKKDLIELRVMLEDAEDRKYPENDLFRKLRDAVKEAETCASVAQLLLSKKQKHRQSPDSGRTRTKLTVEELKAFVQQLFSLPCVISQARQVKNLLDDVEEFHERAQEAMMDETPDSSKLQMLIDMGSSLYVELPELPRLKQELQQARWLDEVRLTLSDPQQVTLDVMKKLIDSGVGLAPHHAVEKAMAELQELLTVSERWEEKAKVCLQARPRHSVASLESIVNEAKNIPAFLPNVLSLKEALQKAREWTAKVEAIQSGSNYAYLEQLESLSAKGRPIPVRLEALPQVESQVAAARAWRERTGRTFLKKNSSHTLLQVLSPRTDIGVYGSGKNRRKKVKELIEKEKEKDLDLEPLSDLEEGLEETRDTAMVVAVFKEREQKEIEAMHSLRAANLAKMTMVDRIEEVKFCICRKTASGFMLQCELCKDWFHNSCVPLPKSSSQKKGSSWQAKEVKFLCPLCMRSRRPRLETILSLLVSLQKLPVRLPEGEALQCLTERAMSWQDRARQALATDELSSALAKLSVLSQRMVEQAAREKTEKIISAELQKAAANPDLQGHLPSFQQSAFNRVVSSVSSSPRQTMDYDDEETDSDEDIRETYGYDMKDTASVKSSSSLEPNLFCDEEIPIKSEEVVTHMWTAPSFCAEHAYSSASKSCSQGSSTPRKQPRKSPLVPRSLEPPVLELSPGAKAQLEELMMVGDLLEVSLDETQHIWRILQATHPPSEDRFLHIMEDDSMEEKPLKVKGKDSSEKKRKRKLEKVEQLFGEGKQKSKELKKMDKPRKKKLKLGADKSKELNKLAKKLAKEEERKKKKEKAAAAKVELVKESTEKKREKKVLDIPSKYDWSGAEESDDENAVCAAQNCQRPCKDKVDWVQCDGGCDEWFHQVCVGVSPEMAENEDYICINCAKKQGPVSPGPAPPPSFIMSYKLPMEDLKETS

[3] = target: Lysine-specific demethylase 5B (Homo sapiens, UniProt Q9UGL1); experiment: Inhibition of KDM5B (1 to 809 residues)(unknown origin) by Alphalisa assay
Lysine-specific demethylase 5B, sequence (Q9UGL1 whole entry, the tested form may be a part): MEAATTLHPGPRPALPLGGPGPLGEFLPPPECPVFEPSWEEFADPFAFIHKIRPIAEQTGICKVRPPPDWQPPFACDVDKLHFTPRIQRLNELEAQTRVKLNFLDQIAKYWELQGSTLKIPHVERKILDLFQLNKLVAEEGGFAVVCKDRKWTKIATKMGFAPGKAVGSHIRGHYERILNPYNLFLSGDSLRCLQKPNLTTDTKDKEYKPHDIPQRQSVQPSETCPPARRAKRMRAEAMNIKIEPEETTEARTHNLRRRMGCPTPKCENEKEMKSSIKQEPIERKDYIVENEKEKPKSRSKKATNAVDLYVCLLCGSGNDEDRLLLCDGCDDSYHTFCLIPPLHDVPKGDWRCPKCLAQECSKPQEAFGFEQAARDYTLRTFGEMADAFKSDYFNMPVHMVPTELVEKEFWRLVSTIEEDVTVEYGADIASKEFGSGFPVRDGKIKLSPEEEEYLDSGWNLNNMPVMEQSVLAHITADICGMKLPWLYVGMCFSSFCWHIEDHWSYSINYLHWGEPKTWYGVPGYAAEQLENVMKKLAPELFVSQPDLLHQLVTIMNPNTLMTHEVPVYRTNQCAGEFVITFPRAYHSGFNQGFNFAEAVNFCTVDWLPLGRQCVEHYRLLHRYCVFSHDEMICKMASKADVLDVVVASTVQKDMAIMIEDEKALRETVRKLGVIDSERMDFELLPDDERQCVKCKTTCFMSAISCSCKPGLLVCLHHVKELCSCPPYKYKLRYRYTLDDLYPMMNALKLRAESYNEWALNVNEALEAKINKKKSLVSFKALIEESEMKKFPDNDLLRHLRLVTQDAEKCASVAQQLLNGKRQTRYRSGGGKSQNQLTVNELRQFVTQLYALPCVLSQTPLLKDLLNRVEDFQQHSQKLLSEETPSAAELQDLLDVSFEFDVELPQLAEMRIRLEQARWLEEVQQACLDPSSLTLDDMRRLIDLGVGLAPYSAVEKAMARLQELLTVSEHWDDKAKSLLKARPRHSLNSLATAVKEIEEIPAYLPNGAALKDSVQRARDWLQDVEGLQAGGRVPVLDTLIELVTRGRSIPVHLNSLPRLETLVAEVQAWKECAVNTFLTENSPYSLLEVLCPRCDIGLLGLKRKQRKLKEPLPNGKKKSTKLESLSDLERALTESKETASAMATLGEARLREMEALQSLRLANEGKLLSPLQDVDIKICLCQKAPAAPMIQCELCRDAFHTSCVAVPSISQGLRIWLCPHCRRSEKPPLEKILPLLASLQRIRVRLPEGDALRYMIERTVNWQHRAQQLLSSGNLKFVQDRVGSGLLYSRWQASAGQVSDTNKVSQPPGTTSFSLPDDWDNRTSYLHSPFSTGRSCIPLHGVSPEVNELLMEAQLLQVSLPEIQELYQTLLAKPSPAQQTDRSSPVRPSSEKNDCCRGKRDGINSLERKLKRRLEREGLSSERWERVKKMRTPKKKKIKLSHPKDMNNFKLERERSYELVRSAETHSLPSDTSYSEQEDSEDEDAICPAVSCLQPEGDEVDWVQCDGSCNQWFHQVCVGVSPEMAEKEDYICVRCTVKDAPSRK

[4] = target: Lysine-specific demethylase 5C (Homo sapiens, UniProt P41229); experiment: Inhibition of KDM5C (2 to 1560 residues)(unknown origin) by Alphalisa assay
[5] = target: Histone lysine demethylase PHF8 (Homo sapiens, UniProt Q9UPP1); experiment: Inhibition of PHF8 (1 to 1024 residues)(unknown origin) by Alphalisa assay
Histone lysine demethylase PHF8, sequence (Q9UPP1 whole entry, the tested form may be a part): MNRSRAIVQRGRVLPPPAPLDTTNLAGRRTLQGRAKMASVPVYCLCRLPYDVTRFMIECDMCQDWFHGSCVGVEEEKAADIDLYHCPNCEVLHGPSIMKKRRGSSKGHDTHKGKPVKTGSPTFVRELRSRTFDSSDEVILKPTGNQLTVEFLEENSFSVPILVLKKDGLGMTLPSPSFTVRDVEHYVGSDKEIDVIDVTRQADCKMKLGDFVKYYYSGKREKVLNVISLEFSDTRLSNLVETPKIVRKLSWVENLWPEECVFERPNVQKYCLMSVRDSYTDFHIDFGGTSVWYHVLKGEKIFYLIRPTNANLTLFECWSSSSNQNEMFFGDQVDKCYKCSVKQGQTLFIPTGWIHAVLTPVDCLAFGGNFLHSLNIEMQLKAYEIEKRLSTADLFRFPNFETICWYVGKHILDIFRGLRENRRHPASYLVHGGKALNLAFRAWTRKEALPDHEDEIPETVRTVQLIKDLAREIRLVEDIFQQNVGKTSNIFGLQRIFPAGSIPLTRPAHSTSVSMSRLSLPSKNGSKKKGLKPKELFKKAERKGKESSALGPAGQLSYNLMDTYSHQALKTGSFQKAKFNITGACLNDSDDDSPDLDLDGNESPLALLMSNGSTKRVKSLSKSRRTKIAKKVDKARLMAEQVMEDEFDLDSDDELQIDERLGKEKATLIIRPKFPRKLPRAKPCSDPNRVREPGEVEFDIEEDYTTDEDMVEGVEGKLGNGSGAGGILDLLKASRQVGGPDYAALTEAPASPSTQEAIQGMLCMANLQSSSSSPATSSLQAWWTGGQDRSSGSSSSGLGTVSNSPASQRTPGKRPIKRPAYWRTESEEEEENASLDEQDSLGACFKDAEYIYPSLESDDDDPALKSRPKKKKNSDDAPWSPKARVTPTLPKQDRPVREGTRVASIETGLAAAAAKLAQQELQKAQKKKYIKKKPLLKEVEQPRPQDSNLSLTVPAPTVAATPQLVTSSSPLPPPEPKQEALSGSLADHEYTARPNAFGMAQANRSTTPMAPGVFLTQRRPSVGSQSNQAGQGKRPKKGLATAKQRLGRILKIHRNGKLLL

Q: For O=C(O)CCNc1cc(N2CCc3ccccc3CC2)nc(-c2cccnc2)n1, which IC50 [1] is on record?
A: 8.3 µM

Q: And the IC50 [2]?
A: > 20 µM

Q: And the IC50 [3]?
A: 33 µM

Q: And the IC50 [4]?
A: > 75 µM

Q: What about the IC50 [5] of the same molecule?
A: 17 µM

Q: Which results are given for CCOC(=O)CCNc1cc(N2CCc3ccccc3CC2)nc(-c2cccnc2)n1?
A: IC50 [1]: 24 µM; IC50 [2]: > 50 µM; IC50 [3]: > 25 µM; IC50 [5]: > 25 µM
